Patent US20250319032A1, “PHARMACEUTICAL COMPOSITIONS OF RIBOCICLIB” (Novartis AG, priority 2024, published 2025)

Assay: Nitrite content (ion chromatography; LC-FLD with DAN derivatisation; Griess test) in drug substance, intermediates, reagents, solvents, filters, excipients
Type: physicochemical
Settings: ribociclib succinate drug substance batches at release
Description: The method of testing for the presence and/or total amount of nitrites that is used in the methods of the invention may be any method which allows for the detection and/or quantitation of nitrites in a composition. For example, the method may be the Griess test. The Griess test allows for the detection and analysis of nitrite by the formation of a red-pink colour upon treatment of a nitrite-containing sample with the Griess reagent. The Griess reagent consists of two components in an acidic solution: an aniline derivative and a coupling agent. The most common arrangements use sulfanilamide and N-(1-naphthyl)ethylenediamine. For example 0.2% N-(1-naphthyl)ethylenediamine dihydrochloride and 2% sulfanilamide in 5% phosphoric acid may be used as a Griess reagent. Other aniline derivatives that may be used in a Griess reagent include sulfanilic acid, nitroaniline, and p-aminoacetophenone.
The Griess test involves two subsequent reactions, as shown in the scheme below. When the aniline derivative (e.g., sulfanilamide) is added, the nitrite ion reacts with it in the Griess diazotization reaction to form a diazonium salt, which then reacts with N-(1-naphthyl)ethylenediamine in an azo-coupling reaction, forming a pink-red azo-dye. Using a spectrophotometer, the nitrite concentration can then be quantitatively detected.
Additionally purified water; e.g. Milli Q • 2.
• 10 mM KH2PO4 Weigh accurately about 1.361 g of KH2PO4 into a 1 L volumetric flask, dissolve it in approximately 950 mL of additionally purified water and adjust the pH to 8.0 (with 2.7 M NaOH). Make up to the mark with additionally purified water. • 0.62 M HCl Add a few millilitres (e.g. 20 mL) of additionally purified water to a 200 mL volumetric flask, add 10.280 mL of concentrated HCl, mix and make up to the mark with additionally purified water. • 2.7 M NaOH Weigh accurately about 1.092 g of NaOH pellets into a 10 mL volumetric flask and dissolve it in additionally purified water. Cool to room temperature and make up to the mark with the same solvent. • Reagent DAN Weigh accurately about 5 mg of 2,3-diaminophthalene into a 100 mL volumetric flask and dissolve it with the solvent (methanol/water 1:1 (v/v)). Dilute up to the mark and ensure visual full dissolution. Use an amberglass flask. • Mobile phase A Mix 950 mL of 10 mM KH2PO4 solution (pH=8) and add 50 mL methanol. • Mobile phase B Methanol. • Solvent Methanol/water 1:1 (v/v), e.g. mix 2000 mL of additionally purified water and 2000 mL methanol.
• Instrument: HPLC with FLR detector; e.g. Waters Arc or equivalent • Column: C18 50×4.6 mm, 2.5 μm, e.g. XBridge C18 2.5 μm, 4.650 mm or equivalent
• Notes It is recommended to wear additional protective equipment (face mask and gloves) during weighing. • It is recommended to wash the column with 50% methanol after the analysis (example of preparation: mix 500 mL methanol and 500 m1 of additionally purified water). • It is recommended to rinse the injector with solvent after each injection. • All glassware and tools should be rinsed with additionally purified water before use. It is not recommended to leave the solutions open for a longer time before measurement. • Blank solution 1 Transfer 1 mL of solvent into a HPLC vial and perform derivatization as described below. • Blank solution 2 Transfer 10 mL of solvent into a single use glass vial and mix it on a magnetic stirrer for 30 min. Transfer the solution into a 5 mL centrifuge tube and centrifuge for 10 min at 12000 rpm. […] Fill up to the mark with solvent and mix. • (Cnitrite≈0.0005 mg/mL) • Comparison solution Transfer 10 mL of nitrite stock solution into a 500 mL volumetric flask. • (2 parallels) Fill up to the mark with solvent and mix. • Transfer 1 mL solution into a HPLC vial and perform the derivatization as described below. • (Cnitrite≈100 ppb) • Sample solution Accurately weigh about 1000 mg of the sample into a glass vial for single use and add 10 mL of solvent.

SMILES	Nitrite NAT enhanced sample prep. (ppm) (manufacturer Raybow - DS04)	Nitrite NAT enhanced sample prep. (ppm) (manufacturer Raybow - DS05)
CN(C)C(=O)c1cc2cnc(Nc3ccc(N4CCNCC4)cn3)nc2n1C1CCCC1.O=C(O)CCC(=O)O [RIBOCICLIB SUCCINATE 833268A201]	0.1	0.1
CN(C)C(=O)c1cc2cnc(Nc3ccc(N4CCNCC4)cn3)nc2n1C1CCCC1.O=C(O)CCC(=O)O [RIBOCICLIB SUCCINATE 833268A202]	0.1	0.1
CN(C)C(=O)c1cc2cnc(Nc3ccc(N4CCNCC4)cn3)nc2n1C1CCCC1.O=C(O)CCC(=O)O [RIBOCICLIB SUCCINATE 833268A207]	0.1	0.1
CN(C)C(=O)c1cc2cnc(Nc3ccc(N4CCNCC4)cn3)nc2n1C1CCCC1.O=C(O)CCC(=O)O [RIBOCICLIB SUCCINATE 833268A211]	<0.1	
CN(C)C(=O)c1cc2cnc(Nc3ccc(N4CCNCC4)cn3)nc2n1C1CCCC1.O=C(O)CCC(=O)O [RIBOCICLIB SUCCINATE 833268A212]	<0.1	
CN(C)C(=O)c1cc2cnc(Nc3ccc(N4CCNCC4)cn3)nc2n1C1CCCC1.O=C(O)CCC(=O)O [RIBOCICLIB SUCCINATE 833268R008]	0.3	
CN(C)C(=O)c1cc2cnc(Nc3ccc(N4CCNCC4)cn3)nc2n1C1CCCC1.O=C(O)CCC(=O)O [RIBOCICLIB SUCCINATE 833268R009]	<0.1	

Results, then the compound that gave them:

Nitrite NAT enhanced sample prep. (ppm) (manufacturer Raybow - DS04)	Nitrite NAT enhanced sample prep. (ppm) (manufacturer Raybow - DS05)	SMILES
<0.1		CN(C)C(=O)c1cc2cnc(Nc3ccc(N4CCNCC4)cn3)nc2n1C1CCCC1.O=C(O)CCC(=O)O [RIBOCICLIB SUCCINATE 833268R010]
<0.1		CN(C)C(=O)c1cc2cnc(Nc3ccc(N4CCNCC4)cn3)nc2n1C1CCCC1.O=C(O)CCC(=O)O [RIBOCICLIB SUCCINATE 833268R011]
<0.1		CN(C)C(=O)c1cc2cnc(Nc3ccc(N4CCNCC4)cn3)nc2n1C1CCCC1.O=C(O)CCC(=O)O [RIBOCICLIB SUCCINATE 833268R012]
<0.1		CN(C)C(=O)c1cc2cnc(Nc3ccc(N4CCNCC4)cn3)nc2n1C1CCCC1.O=C(O)CCC(=O)O [RIBOCICLIB SUCCINATE 833268R013]
<0.1		CN(C)C(=O)c1cc2cnc(Nc3ccc(N4CCNCC4)cn3)nc2n1C1CCCC1.O=C(O)CCC(=O)O [RIBOCICLIB SUCCINATE 833268R014]
<0.1		CN(C)C(=O)c1cc2cnc(Nc3ccc(N4CCNCC4)cn3)nc2n1C1CCCC1.O=C(O)CCC(=O)O [RIBOCICLIB SUCCINATE 833268R015]
<0.1		CN(C)C(=O)c1cc2cnc(Nc3ccc(N4CCNCC4)cn3)nc2n1C1CCCC1.O=C(O)CCC(=O)O [RIBOCICLIB SUCCINATE 833268R016]
	0.1	CN(C)C(=O)c1cc2cnc(Nc3ccc(N4CCNCC4)cn3)nc2n1C1CCCC1.O=C(O)CCC(=O)O [RIBOCICLIB SUCCINATE 834325A015]
	0.1	CN(C)C(=O)c1cc2cnc(Nc3ccc(N4CCNCC4)cn3)nc2n1C1CCCC1.O=C(O)CCC(=O)O [RIBOCICLIB SUCCINATE 834325A016]
